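Cells were grown in 96-well plates and exposed to each compound for 48 hours at five concentrations; endpoints were interpolated linearly between bracketing concentrations, or set to the highest concentration if not reached. Definition used: TGI = concentration required for complete inhibition of growth.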
Tests used:
Assay in all cases: NCI anticancer screen, dose series, 48 h
PC-3 prostate = system: PC-3 prostate
HT29 colon = system: HT29 colon
RXF 393 renal = system: RXF 393 renal
786-0 renal = system: 786-0 renal
HCT-116 colon = system: HCT-116 colon
OVCAR-4 ovarian = system: OVCAR-4 ovarian
IGROV1 ovarian = system: IGROV1 ovarian
MDA-MB-231 breast = system: MDA-MB-231 breast
SK-OV-3 ovarian = system: SK-OV-3 ovarian
MALME-3M melanoma = system: MALME-3M melanoma
NCI-H226 lung = system: NCI-H226 lung
SF-295 CNS = system: SF-295 CNS
SK-MEL-2 melanoma = system: SK-MEL-2 melanoma
UO-31 renal = system: UO-31 renal
DU-145 prostate = system: DU-145 prostate
OVCAR-3 ovarian = system: OVCAR-3 ovarian
SNB-19 CNS = system: SNB-19 CNS
ACHN renal = system: ACHN renal
SF-268 CNS = system: SF-268 CNS
HCC-2998 colon = system: HCC-2998 colon
SK-MEL-5 melanoma = system: SK-MEL-5 melanoma
NCI-H522 lung = system: NCI-H522 lung
EKVX NSCLC = system: EKVX NSCLC
U251 CNS = system: U251 CNS
SN12C renal = system: SN12C renal
OVCAR-8 ovarian = system: OVCAR-8 ovarian
NCI-H460 lung = system: NCI-H460 lung
CCRF-CEM leukemia = system: CCRF-CEM leukemia
SNB-75 CNS = system: SNB-75 CNS
NCI-H23 lung = system: NCI-H23 lung
HS 578T breast = system: HS 578T breast
SK-MEL-28 melanoma = system: SK-MEL-28 melanoma
HCT-15 colon = system: HCT-15 colon
OVCAR-5 ovarian = system: OVCAR-5 ovarian
M14 melanoma = system: M14 melanoma
HOP-62 NSCLC = system: HOP-62 NSCLC
SW-620 colon = system: SW-620 colon
MCF7 breast = system: MCF7 breast
COLO 205 colon = system: COLO 205 colon
T-47D breast = system: T-47D breast
SR leukemia = system: SR leukemia
A498 renal = system: A498 renal
A549 NSCLC = system: A549 NSCLC
MDA-MB-435 = system: MDA-MB-435
BT-549 breast = system: BT-549 breast
TK-10 renal = system: TK-10 renal
KM12 colon = system: KM12 colon
CAKI-1 renal = system: CAKI-1 renal
UACC-62 melanoma = system: UACC-62 melanoma
K-562 leukemia = system: K-562 leukemia
HOP-92 NSCLC = system: HOP-92 NSCLC
LOX IMVI melanoma = system: LOX IMVI melanoma
NCI/ADR-RES ovarian = system: NCI/ADR-RES ovarian
MOLT-4 leukemia = system: MOLT-4 leukemia
UACC-257 melanoma = system: UACC-257 melanoma

Measured: TGI

CCCCCCCC/C=C\CCCCCCCC(=O)OC[C@]1(CO)CCC(=O)O1
> 100 µM: all assays above
